Columns and labels:
[1] = target: PI3K gamma (Homo sapiens, UniProt P48736); assay: PI3K gamma in vitro inhibition; assay type: biochemical; conditions: read-out: IC50 inhibition PI3K gamma
Experimental: (§1) The kinase or bromodomain inhibitory activity of a compound of the invention can be determined by routine methods known to the skilled artisan without undue experimentation, or by procuring relevant analysis by a commercial vendor offering such services. […] In vivo, PI3K inhibition can be determined from target tissue biopsies by standard tissue processing in which cells are disrupted and Western Blot analysis is performed to determine the presence or absence of pAKT (substrate of PI3K) relative to a control sample. PI3K inhibition assays and BTK inhibition assays are known in the art and can be procured commercially through vendors such as Reaction Biology (Malvern, PA). The activity of a compound of the invention as an inhibitor of a bromodomain-containing protein, such as a BET protein, including BRD2, BRD3, BRD4, and/or BRDT, or an isoform or mutant thereof, may be determined in vitro, in vivo, or in a cell line. In vitro assays include assays that determine inhibition of bromodomain-containing proteins. Alternatively, inhibitor binding may be determined by running a competition experiment where a provided compound is incubated with a bromodomain-containing protein, such as a BET protein bound to known ligands, labeled or unlabeled. In vitro bromodomain inhibition assays can be performed using Alpha Screen Technology (Perkin Elmer Life and Analytical Sciences, Shelton, CT). In vivo bromodomain inhibition can be determined indirectly by evaluating the amount of a protein whose gene transcription is influenced or controlled by the bromodomain protein, for example, MYCN protein transcription is controlled by BRD4 (J.E. Delmore et al., Cell 2011, 146, 904-917; A. Puissant, Cancer Discov. 2013, 3, 308-323).
(§2) IC50 inhibition data against the indicated targets were determined for compounds of the invention using standard in vitro assays (Tables 8 and 9).

[2] = target: PI3K alpha (Homo sapiens, UniProt P42336); assay: PI3K alpha in vitro inhibition; assay type: biochemical
Experimental: as §1

[3] = target: T1, BRD4-1 (Homo sapiens, UniProt O60885); assay: BRD4-1 in vitro inhibition; assay type: binding
T1 construct: BRD4-1
Experimental: as §1

[4] = target: T2, BRD4-2 (Homo sapiens, UniProt O60885); assay: BRD4-2 in vitro inhibition; assay type: binding
T2 construct: BRD4-2
Experimental: as §1

[5] = target: BTK C481S (Homo sapiens, UniProt Q06187, C481S); assay: BTK C481S in vitro inhibition; assay type: biochemical
Experimental: as §1, §2

[6] = target: PI3K beta (Homo sapiens, UniProt P42338); assay: PI3K beta in vitro inhibition; assay type: biochemical
Experimental: as §1

[7] = target: BTK (Homo sapiens, UniProt Q06187); assay: BTK in vitro inhibition; assay type: biochemical
Experimental: as §1, §2

[8] = target: Syk (Homo sapiens, UniProt P43405); assay: Syk in vitro inhibition; assay type: biochemical
Experimental: as §1, §2

[9] = target: CDK4 cyclinD1 (Homo sapiens, UniProt P11802); assay: CDK4 cyclinD1 in vitro inhibition; assay type: biochemical
Experimental: as §1, §2

[10] = target: CDK6 cyclinD1 (Homo sapiens, UniProt Q00534); assay: CDK6 cyclinD1 in vitro inhibition; assay type: biochemical
Experimental: as §1, §2

[11] = target: PI3K delta (Homo sapiens, UniProt O00329); assay: PI3K delta in vitro inhibition; assay type: biochemical
Experimental: as §1, §2

CDK4 cyclinD1, sequence (P11802 whole entry): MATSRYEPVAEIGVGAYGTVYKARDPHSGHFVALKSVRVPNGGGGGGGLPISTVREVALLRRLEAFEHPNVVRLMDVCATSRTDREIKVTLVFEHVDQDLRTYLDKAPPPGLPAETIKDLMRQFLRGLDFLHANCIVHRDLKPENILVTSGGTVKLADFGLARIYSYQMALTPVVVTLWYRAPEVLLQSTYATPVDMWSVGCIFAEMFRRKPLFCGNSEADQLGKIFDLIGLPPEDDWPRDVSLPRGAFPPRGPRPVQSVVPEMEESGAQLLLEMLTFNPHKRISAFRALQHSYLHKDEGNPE
CDK4 cyclinD1, sequence (P24385 whole entry partner): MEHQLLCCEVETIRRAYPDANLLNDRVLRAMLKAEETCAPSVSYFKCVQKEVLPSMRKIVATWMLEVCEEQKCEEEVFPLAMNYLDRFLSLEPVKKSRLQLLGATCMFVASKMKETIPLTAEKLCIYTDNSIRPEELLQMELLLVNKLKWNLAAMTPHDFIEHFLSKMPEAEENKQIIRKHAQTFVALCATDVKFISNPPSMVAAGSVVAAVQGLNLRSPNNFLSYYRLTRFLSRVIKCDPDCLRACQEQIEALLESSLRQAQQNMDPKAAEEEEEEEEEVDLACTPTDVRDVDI
PI3K beta, sequence (P42338 whole entry): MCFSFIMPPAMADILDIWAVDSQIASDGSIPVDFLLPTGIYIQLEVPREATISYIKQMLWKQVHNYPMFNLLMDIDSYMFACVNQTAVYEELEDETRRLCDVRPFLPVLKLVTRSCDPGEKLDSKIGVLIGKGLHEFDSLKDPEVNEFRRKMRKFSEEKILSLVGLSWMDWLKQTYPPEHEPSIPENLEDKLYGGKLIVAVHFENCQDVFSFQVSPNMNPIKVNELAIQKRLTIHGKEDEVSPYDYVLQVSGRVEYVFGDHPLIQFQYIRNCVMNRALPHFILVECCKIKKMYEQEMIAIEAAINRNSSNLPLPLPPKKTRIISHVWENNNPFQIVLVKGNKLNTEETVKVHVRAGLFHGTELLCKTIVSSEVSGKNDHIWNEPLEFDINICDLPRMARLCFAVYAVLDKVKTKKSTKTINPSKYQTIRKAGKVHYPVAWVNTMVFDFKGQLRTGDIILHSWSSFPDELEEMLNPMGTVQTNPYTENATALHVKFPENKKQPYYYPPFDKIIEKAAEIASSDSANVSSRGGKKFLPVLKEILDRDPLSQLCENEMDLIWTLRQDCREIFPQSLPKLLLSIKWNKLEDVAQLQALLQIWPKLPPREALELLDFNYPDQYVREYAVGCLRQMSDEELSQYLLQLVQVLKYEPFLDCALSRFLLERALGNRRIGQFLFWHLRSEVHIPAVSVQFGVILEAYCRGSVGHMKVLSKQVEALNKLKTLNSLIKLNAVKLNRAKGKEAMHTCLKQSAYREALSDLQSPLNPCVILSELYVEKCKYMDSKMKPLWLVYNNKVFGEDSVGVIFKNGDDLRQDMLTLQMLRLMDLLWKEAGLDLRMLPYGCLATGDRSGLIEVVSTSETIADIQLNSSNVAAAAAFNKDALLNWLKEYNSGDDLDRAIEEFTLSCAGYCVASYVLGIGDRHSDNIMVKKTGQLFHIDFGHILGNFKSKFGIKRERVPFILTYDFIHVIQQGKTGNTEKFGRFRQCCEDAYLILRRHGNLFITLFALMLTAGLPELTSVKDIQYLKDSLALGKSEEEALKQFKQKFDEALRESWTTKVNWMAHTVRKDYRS
PI3K beta, sequence (P27986 whole entry partner): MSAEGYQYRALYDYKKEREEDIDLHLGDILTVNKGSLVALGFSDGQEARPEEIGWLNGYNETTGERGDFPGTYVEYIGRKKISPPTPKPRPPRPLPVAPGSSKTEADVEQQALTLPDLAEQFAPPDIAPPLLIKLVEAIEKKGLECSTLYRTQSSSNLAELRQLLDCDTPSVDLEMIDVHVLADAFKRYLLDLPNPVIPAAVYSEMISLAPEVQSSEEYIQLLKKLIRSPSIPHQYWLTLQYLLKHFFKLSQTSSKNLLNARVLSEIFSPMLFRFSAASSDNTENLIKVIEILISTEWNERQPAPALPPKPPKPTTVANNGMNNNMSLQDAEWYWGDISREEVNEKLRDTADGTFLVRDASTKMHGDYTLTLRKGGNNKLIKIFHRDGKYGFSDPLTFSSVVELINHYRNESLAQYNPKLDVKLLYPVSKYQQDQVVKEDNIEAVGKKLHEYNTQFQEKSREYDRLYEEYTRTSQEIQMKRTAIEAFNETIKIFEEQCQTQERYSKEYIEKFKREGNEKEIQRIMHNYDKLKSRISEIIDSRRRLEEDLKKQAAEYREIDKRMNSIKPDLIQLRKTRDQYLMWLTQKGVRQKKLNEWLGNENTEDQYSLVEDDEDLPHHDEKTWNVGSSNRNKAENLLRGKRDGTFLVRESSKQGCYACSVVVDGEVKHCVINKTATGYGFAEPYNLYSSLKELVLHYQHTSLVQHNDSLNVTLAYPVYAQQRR
PI3K alpha, sequence (P42336 whole entry): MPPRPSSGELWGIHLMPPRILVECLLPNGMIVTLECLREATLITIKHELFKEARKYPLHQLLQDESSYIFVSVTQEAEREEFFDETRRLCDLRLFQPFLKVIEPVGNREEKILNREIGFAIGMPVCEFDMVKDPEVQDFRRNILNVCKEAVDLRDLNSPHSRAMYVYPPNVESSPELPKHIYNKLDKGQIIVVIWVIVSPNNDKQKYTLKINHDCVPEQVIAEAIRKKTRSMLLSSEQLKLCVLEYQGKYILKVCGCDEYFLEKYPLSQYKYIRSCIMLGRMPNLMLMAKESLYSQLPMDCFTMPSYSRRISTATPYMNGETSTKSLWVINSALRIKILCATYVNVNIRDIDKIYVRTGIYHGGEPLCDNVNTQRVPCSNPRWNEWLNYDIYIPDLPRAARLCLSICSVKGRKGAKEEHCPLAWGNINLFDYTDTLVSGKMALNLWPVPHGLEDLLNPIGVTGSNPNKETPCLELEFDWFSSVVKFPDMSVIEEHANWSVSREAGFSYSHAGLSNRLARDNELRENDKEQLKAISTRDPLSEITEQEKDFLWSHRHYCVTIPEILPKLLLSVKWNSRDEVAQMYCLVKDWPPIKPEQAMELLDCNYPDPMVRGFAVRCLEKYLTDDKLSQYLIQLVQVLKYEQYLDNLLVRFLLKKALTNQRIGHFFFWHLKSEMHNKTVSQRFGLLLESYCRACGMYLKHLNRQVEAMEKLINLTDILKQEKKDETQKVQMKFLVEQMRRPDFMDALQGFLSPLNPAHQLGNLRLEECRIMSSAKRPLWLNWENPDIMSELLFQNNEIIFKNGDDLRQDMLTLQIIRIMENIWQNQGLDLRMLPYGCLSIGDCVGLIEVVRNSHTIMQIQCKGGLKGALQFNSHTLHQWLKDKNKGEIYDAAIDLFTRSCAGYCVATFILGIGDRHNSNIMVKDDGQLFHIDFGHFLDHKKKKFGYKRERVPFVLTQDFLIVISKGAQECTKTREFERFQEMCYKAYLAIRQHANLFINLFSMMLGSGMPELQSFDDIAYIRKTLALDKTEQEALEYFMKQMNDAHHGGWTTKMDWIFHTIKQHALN
PI3K alpha, sequence (P27986 whole entry partner): as the sequence (P27986 whole entry partner) above
BTK C481S, sequence (Q06187 whole entry C481S): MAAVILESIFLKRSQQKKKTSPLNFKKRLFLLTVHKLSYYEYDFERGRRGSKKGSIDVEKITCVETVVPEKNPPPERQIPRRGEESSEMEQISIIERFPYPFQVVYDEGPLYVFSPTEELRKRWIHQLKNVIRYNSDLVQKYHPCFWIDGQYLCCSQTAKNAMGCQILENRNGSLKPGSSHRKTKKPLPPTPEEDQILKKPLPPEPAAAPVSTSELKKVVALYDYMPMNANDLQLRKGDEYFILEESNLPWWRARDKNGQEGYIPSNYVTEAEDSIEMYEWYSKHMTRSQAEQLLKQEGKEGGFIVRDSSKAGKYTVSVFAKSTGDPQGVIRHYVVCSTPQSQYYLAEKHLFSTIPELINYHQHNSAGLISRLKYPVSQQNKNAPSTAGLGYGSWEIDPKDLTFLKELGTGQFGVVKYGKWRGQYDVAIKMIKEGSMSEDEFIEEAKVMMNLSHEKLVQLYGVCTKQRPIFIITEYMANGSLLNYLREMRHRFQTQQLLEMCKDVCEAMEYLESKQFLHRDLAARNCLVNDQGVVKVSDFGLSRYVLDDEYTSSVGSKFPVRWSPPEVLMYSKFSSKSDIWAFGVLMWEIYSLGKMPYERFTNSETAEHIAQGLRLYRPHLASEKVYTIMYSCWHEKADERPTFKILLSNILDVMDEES
CDK6 cyclinD1, sequence (Q00534 whole entry): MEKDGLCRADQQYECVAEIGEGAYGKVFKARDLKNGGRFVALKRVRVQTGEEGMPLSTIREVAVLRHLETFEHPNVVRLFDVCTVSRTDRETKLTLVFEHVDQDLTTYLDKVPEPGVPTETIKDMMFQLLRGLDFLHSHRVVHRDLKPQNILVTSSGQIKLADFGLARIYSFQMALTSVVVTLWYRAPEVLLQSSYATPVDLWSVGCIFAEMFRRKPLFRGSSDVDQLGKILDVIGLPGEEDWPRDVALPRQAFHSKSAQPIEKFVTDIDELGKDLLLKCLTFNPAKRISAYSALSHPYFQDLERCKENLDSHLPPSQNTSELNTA
CDK6 cyclinD1, sequence (P24385 whole entry partner): as the sequence (P24385 whole entry partner) above
BTK, sequence (Q06187 whole entry): as the sequence (Q06187 whole entry C481S) above, with S481C counted along it

SMILES | IC50 [1] [nM] | IC50 [2] [nM] | IC50 [3] [nM] | IC50 [4] [nM] | IC50 [5] [nM] | IC50 [6] [nM] | IC50 [7] [nM] | IC50 [8] [nM] | IC50 [9] [nM] | IC50 [10] [nM] | IC50 [11] [nM]
C/C=C/C(=O)N1CCOc2ccc(-c3csc4c(=O)cc(N5CCOCC5)oc34)cc21 [Compound 39] | 1000 to 10000 | < 500 | < 500 | < 500 | > 45000 | < 500 | 10000 to 45000 |  |  |  | 
O=C(C1=CCCC1)N1CCOc2ccc(-c3csc4c(=O)cc(N5CCOCC5)oc34)cc21 [Compound 40] | 1000 to 10000 | < 500 | < 500 | < 500 | 10000 to 45000 | < 500 | > 45000 |  |  |  | 
C=CS(=O)(=O)N1CCCc2ccc(-c3csc4c(=O)cc(N5CCOCC5)oc34)cc21 [Compound 44] | < 500 | < 500 | < 500 | < 500 | 10000 to 45000 | < 500 | < 500 |  |  |  | 
C=CS(=O)(=O)Nc1cc(-c2csc3c(=O)cc(N4CCOCC4)oc23)ccc1OC [Compound 45] | < 500 | < 500 | < 500 | < 500 | > 45000 | < 500 | < 500 |  |  |  | 
C=CS(=O)(=O)Nc1cccc(-c2csc3c(=O)cc(N4CCOCC4)oc23)c1 [Compound 46] | < 500 | < 500 | < 500 | < 500 | > 45000 | < 500 | < 500 |  |  |  | 
C=CS(=O)(=O)N(C)c1cccc(-c2csc3c(=O)cc(N4CCOCC4)oc23)c1 [Compound 47] | < 500 | < 500 | < 500 | 500 to 1000 | > 45000 | < 500 | < 500 |  |  |  | 
C=CS(=O)(=O)N(C)c1cc(-c2csc3c(=O)cc(N4CCOCC4)oc23)ccc1OC [Compound 48] | < 500 | < 500 | < 500 | < 500 | > 45000 | < 500 | < 500 |  |  |  | 
C=CS(=O)(=O)N(c1cc(-c2csc3c(=O)cc(N4CCOCC4)oc23)ccc1OC)S(=O)(=O)C=C [Compound 49] | < 500 | < 500 | < 500 | 1000 to 10000 | 10000 to 45000 | < 500 | < 500 |  |  |  | 
C=CS(=O)(=O)N(c1cccc(-c2csc3c(=O)cc(N4CCOCC4)oc23)c1)S(=O)(=O)C=C [Compound 50] | < 500 | < 500 | < 500 | < 500 | 10000 to 45000 | < 500 | < 500 |  |  |  | 
C=CS(=O)(=O)N(CCS(=O)(=O)N(c1cc(-c2csc3c(=O)cc(N4CCOCC4)oc23)ccc1OC)S(=O)(=O)C=C)c1cc(-c2csc3c(=O)cc(N4CCOCC4)oc23)ccc1OC [Compound 51] | 500 to 1000 | < 500 | 1000 to 10000 | < 500 | 10000 to 45000 | < 500 | 1000 to 10000 |  |  |  | 
Cc1nn(-c2ccnc(Nc3ccc(-c4csc5c(=O)cc(N6CCOCC6)oc45)cc3)n2)cc1CN1CC(O)C1 [Compound 52] | 10000 to 45000 | 500 to 1000 | > 45000 | > 45000 |  |  |  | < 500 | 10000 to 45000 | < 500 | 1000 to 10000
Cc1nn(-c2ccnc(Nc3ccc(-c4csc5c(=O)cc(N6CCNCC6)oc45)cc3)n2)cc1CN1CC(O)C1 [Compound 53] | > 45000 | 1000 to 10000 | 10000 to 45000 | > 45000 |  |  |  | < 500 | 1000 to 10000 | < 500 | 1000 to 10000
Cc1nn(-c2ccnc(Nc3ccc(-c4csc5c(=O)cc(N6CCOCC6)oc45)cc3)n2)cc1CN1CCC1 [Compound 54] | 1000 to 10000 | < 500 | 1000 to 10000 | 1000 to 10000 |  |  |  | < 500 | > 45000 | > 45000 | < 500
Cc1nn(-c2ccnc(Nc3ccc(-c4csc5c(=O)cc(N6CCNCC6)oc45)cc3)n2)cc1CN1CCC1 [Compound 55] | > 45000 | > 45000 | 1000 to 10000 | > 45000 |  |  |  | < 500 | 1000 to 10000 | < 500 | 1000 to 10000

— patent US20230165873A1, “Methods of Use for Single Molecule Compounds Providing Multi-Target Inhibition to Treat Covid 19” (priority 2020, published 2023)
